Source: patent publication US10576126B2, “Antitumor agent” (NATIONAL UNIVERSITY CORPORATION ASAHIKAWA MEDICAL UNIVERSITY, priority 2016, dated 2020)
“Also recorded” adds a separate entry of the source. Like-named read-outs stand apart in the source and are kept apart here. Where a SMILES comes first, the peptide text is derived from it. [ ]: non-standard residue; d: D form. Orn(N5-OH,N5-Ac) = CC(=O)N(O)CCC[C@H](N)C(=O)O

What was measured:
[1] = test system: rat intestinal epithelial cell line IEC-18
[2] = test system: colorectal cancer cell line HCT116; assay: SRB assay, colorectal cancer cell line HCT116; type: cell-based
[3] = test system: colorectal cancer cell line SW620; assay: SW620 subcutaneous transplantation in BALB/c-nude mice; type: in vivo; settings: 10 μg/day to the transplantation site, daily, observed for 9 days, vs PBS
Text: 2×10^6 cells of colorectal cancer cell line SW620 were transplanted subcutaneously into the back of BALB/c-nude mice. […] The appearance of the mice on day 1 after transplantation and on day 9 after transplantation are shown in FIG. 6, and the change in tumor mass volume is shown in FIG. 7, respectively.

[4] = test system: colorectal cancer cell line SW620; assay: SRB assay, colorectal cancer cell line SW620; type: cell-based
Procedure: (§1) L. casei ATCC334, LGG ATCC53103, L. coryniformis ATCC25600 and L. fermentis ATCC23271 were purchased from ATCC. These microorganisms were cultured overnight at 37° C. using MRS broth (Difco) and then transferred to MEM and cultured for one day. The cultured medium was centrifuged at 5,000×g for 10 minutes to collect the supernatant, which was filtered through a 0.2 μm filter and used as the culture supernatant in the following examples.
(§2) By using the colorectal cancer cell lines Caco2/bbe, SKCO-1 and SW620 as test cells and the culture supernatants of LGG ATCC53103, L. casei ATCC334, L. coryniformis ATCC25600 and L. fermentis ATCC23271 as measurement samples, an antitumor activity of each supernatant was measured by SRB-assay.
This fraction was subjected to mass spectrometry (TOF, ionization method: micro ESI) using Nano Frontier elD Liquid Chromatograpy Mass Spectrometer (Hitachi High-technologies), and a chart shown in FIG. 3A was obtained. The peak at m/z 763.2 in this chart was approximately consistent with that in the chart obtained for commercial ferrichrome (Sigma-Aldrich) by mass spectrometry in a similar mannar (FIG. 3B). By using commercially available ferrichrome as a measurement sample and the colorectal cancer cell line SW620 as a test cell, an antitumor activity was measured.

[5] = test system: colorectal cancer cell line HT29; assay: SRB assay, colorectal cancer cell line HT29; type: cell-based
[6] = test system: pancreatic cancer cell line bxpc3; assay: SRB assay, pancreatic cancer cell line bxpc3; type: cell-based
[7] = test system: esophageal cancer cell line OE33; assay: SRB assay, esophageal cancer cell line OE33; type: cell-based
[8] = test system: colorectal cancer cell line Caco2/bbe; assay: SRB assay, colorectal cancer cell line Caco2/bbe; type: cell-based
Procedure: as §1, §2

[9] = Blood AST, ALT and serum iron in C57/BL6 mice; type: in vivo; settings: oral or intravenous, 10 μg or 100 μg/day for 7 days, vs controls
Procedure: Blood AST (aspartate aminotransferase), ALT (alanine aminotransferase), and serum iron were measured in C57/BL6 mice (n=5) after oral or intravenous administration of 10 μg or 100 μg of ferrichrome/day for 7 days.

[10] = test system: pancreatic cancer cell line Miapaca; assay: Antitumor activity, pancreatic cancer cell line Miapaca; type: cell-based
[11] = test system: colorectal cancer cell line SKCO-1; assay: SRB assay, colorectal cancer cell line SKCO-1; type: cell-based; settings: SKCO-1, SRB assay
Procedure: as §1, §2

[12] = test system: colorectal cancer cell line SW620; assay: TUNEL staining of SW620; type: cell-based; settings: SW620, 0.1 μg/mL
[13] = test system: DNA damage-inducible transcript 3 (DDIT3); assay: DDIT3 expression in SW620; type: cell-based
Procedure: Changes in mRNA expression between ferrichrome-treated and untreated colorectal cancer cell line SW620 were measured by high-throughput sequence analysis using a MetaCore software program. […] DDIT3 is a protein known to be involved in Bax-Bak mitochondrial permeation and JNK signaling (Tabas I, Ron D. Nat Cell Biol. 2011 March; 13(3): 184-90).

[14] = test system: gastric cancer cell line SH-10-TC; assay: SRB assay, gastric cancer cell line SH-10-TC; type: cell-based
cleaved caspase-3 = assay: Western blotting for cleaved caspase-3 in SW620; type: cell-based; settings: ferrichrome-treated SW620, Western blotting
Text: (§3) Total proteins recovered from the ferrichrome-treated colorectal cancer cell line SW620 using mammalian cell extraction kit (BioVision) were subjected to Western blotting using specific antibodies for cleaved caspase-3 and PARP (Cell Signaling), respectively.

phosphorylated JNK = assay: Western blotting for phosphorylated JNK in SW620; type: cell-based; settings: ferrichrome-treated SW620, Western blotting
[15] = test system: rat intestinal epithelial cell line IEC-18; assay: SRB assay, rat intestinal epithelial cell line IEC-18; settings: rat intestinal epithelial cells
[16] = test system: esophageal cancer cell line OE19; assay: Antitumor activity, esophageal cancer cell line OE19; type: cell-based
[17] = test system: pancreatic cancer cell Suit2; assay: Suit2 subcutaneous transplantation in nude mice; type: in vivo; settings: 100 μg intraperitoneally once every two days for 12 days, vs PBS
Procedure: Two days after subcutaneous transplantation of 1×10^6 pancreatic cancer cell Suit2 in two groups of nude mice (n=5/group), 100 μg of ferrichrome dissolved in PBS in one group and PBS alone in the other group were administered intraperitoneally once every two days for 12 days under normal breeding Conditions. A photograph of the transplantation site 12 days after transplantation is shown in FIG. 21, and the change in volume of the tumor mass is shown in FIG. 22.

[18] = test system: gastric cancer cells MKN45; assay: MKN45 subcutaneous transplantation in BALB/c nude mice; type: in vivo; settings: 100 μg daily into the transplantation site, vs PBS
Procedure: Two groups of BALB/c nude mice (n=6/group) were transplanted with 1×10^6 gastric cancer cells MKN45 by subcutaneous injection into their back. Each day from the day following transplantation, 100 μg of ferrichrome dissolved in PBS in one group and PBS alone in the other group were administered into the transplantation site, and the mice were kept under normal breeding conditions for 21 days. Photographs of the transplantation site 1 day and 19 days after transplantation are shown in FIG. 19, and the change in tumor volume ratio when the tumor volume 1 day after transplantation set to 1 is shown in FIG. 20.

[19] = test system: tumor in the large intestine; assay: AOM-DSS chemical carcinogenic mice, oral administration; type: in vivo; settings: 50 μg orally daily for 28 days, vs PBS
Procedure: Azoxymethane (AOM) was administered intraperitoneally at 10 mg/kg to BALB/c mice (6 weeks old, male). Following 1 week breeding after AOM treatment, mice were administered drinking water containing dextran sulfate sodium (DSS, MP bio) diluted to 1.5% with distilled water by free access for 1 week. After a 1-week wash-out period, mice were administered drinking water containing dextran sulfate sodium (DSS, MP bio) diluted to 1% with distilled water by free access for 1 week, to prepare chemical carcinogenic models. After one more 1-week wash-out period, 50 μg of ferrichrome diluted in PBS was orally administered daily for 28 days under normal breeding conditions. After breeding, the large intestine was taken out from the mice and the tumor area was measured.
(§4) Normal mice not administered AOM and DSS and chemical carcinogenic mice orally administered PBS alone were prepared, respectively, and the tumor area in the large intestine was measured in the same manner. Photographs showing the appearance of the large intestine in each mouse are shown in FIG. 23, and tumor areas in the large intestine are shown in FIG. 24.

[20] = test system: pancreatic cancer cell line KP1N; assay: Antitumor activity, pancreatic cancer cell line KP1N; type: cell-based
[21] = test system: mouse primary intestinal epithelial cells; assay: SRB assay, mouse primary intestinal epithelial cells; type: cell-based
Procedure: Mouse primary intestinal epithelial cells were prepared and cultured according to the method as reported previously (Liu X et al., Am J Pathol. 2012 February; 180(2): 599-607).

[22] = test system: gastric cancer cell line MKN7; assay: Antitumor activity, gastric cancer cell line MKN7; type: cell-based
[23] = test system: pancreatic cancer cell line suit2; assay: SRB assay, pancreatic cancer cell line suit2; type: cell-based
[24] = test system: gastric cancer cell line MKN45; assay: SRB assay, gastric cancer cell line MKN45; type: cell-based
[25] = test system: tumor in the large intestine; assay: AOM-DSS chemical carcinogenic mice, intraperitoneal administration; type: in vivo; settings: 100 μg intraperitoneally once every 2 days for 49 days, vs PBS
Procedure: Azoxymethane (AOM) was administered intraperitoneally at 10 mg/kg to BALB/c mice (6 weeks old, male). Following 1 week breeding after AOM treatment, mice were administered drinking water containing dextran sulfate sodium (DSS, MP bio) diluted to 1% with distilled water by free access for 1 week. After a 1-week wash-out period, 100 μg of ferrichrome dissolved in PBS was intraperitoneally administered once every 2 days for 49 days under normal breeding conditions. After breeding, the large intestine was taken out from the mice and the tumor area was measured.
as §4, with “intraperitoneally” for “orally”, “25,” for “23,”, “26.” for “24.”

[26] = test system: pancreatic cancer cell line KP3; assay: Antitumor activity, pancreatic cancer cell line KP3; type: cell-based
PARP = assay: Western blotting for PARP in SW620; type: cell-based; settings: ferrichrome-treated SW620, Western blotting
Text: as §3

[27] = test system: gastric cancer cell line MKN74; assay: Antitumor activity, gastric cancer cell line MKN74; type: cell-based
[28] = test system: pancreatic cancer cell line KP3L; assay: Antitumor activity, pancreatic cancer cell line KP3L; type: cell-based

SMILES: O=c1[nH]cc(F)c(=O)[nH]1 [5-FU, 5-fluorouracil]
- effect on cell density of IEC-18 [1]: reduced a cell density

SMILES: N.N.[Cl][Pt][Cl] [cisplatin]
- effect on cell density of IEC-18 [1]: reduced a cell density

SMILES: CC(=O)N([O-])CCC[C@@H]1NC(=O)CNC(=O)CNC(=O)CNC(=O)[C@H](CCCN([O-])C(C)=O)NC(=O)[C@H](CCCN([O-])C(C)=O)NC1=O.[Fe+3] [ferrichrome] (cyclo(GGG[Orn(N5-OH,N5-Ac)][Orn(N5-OH,N5-Ac)][Orn(N5-OH,N5-Ac)]))
- antitumor activity [2]: exhibited an antitumor activity
- growth of the tumor mass (tumor mass volume) [3]: markedly inhibited the growth of the tumor mass
- antitumor activity (cell density, OD at 510 nm) [4]: dose-dependent antitumor activity
- antitumor activity compared with 5-FU and cisplatin [4]: higher antitumor activity
- antitumor activity (cell density, OD at 510 nm) ([4]; listed as Ferrichrome): strong antitumor activity
- antitumor activity [5]: exhibited an antitumor activity
- antitumor activity (cell density, OD at 510 nm) [6]: dose-dependent antitumor activity
- antitumor activity (cell density, OD at 510 nm) [7]: dose-dependent antitumor activity
- antitumor activity (cell density, OD at 510 nm) [8]: dose-dependent antitumor activity
- blood ALT (alanine aminotransferase) [9]: No significant changes
- blood AST (aspartate aminotransferase) [9]: No significant changes
- serum iron [9]: No significant changes
- antitumor activity [10]: exhibit an antitumor activity
- antitumor activity (cell density, OD at 510 nm) [11]: exhibited an antitumor activity
- induction of apoptosis (TUNEL stain-positive cells) [12]: induction of apoptosis was also confirmed
- expression of DDIT3 ([13]; SW620, RT-PCR and Western blotting): enhanced expression
- mRNA expression level of DDIT3 ([13]; SW620 treated vs untreated, high-throughput sequence analysis): remarkable change (increase in expression)
- antitumor activity (cell density, OD at 510 nm) [14]: dose-dependent antitumor activity
- expression of cleaved caspase-3 (cleaved caspase-3): increased dose-dependently
- expression of phosphorylated JNK (phosphorylated JNK): increased
- effect on cell density of IEC-18 [15]: not significantly reducing cell densities; also recorded: did not significantly affect the cell density
- antitumor activity [16]: exhibit an antitumor activity
- increase in tumor volume [17]: markedly suppressed
- tumor volume ratio (volume 1 day after transplantation set to 1) ([18]; 21 days): suppressed
- tumor mass size at the transplantation site [18]: reduced to such an extent that it could be clearly distinguished by the naked eye
- tumor area in the large intestine [19]: significantly suppressed
- antitumor activity [20]: exhibit an antitumor activity
- effect on cell density of mouse primary intestinal epithelial cells [21]: not significantly reducing cell densities
- antitumor activity [22]: exhibit an antitumor activity
- antitumor activity (cell density, OD at 510 nm) [23]: dose-dependent antitumor activity
- antitumor activity (cell density, OD at 510 nm) [24]: dose-dependent antitumor activity
- tumor area in the large intestine [25]: significantly suppressed
- antitumor activity [26]: exhibit an antitumor activity
- expression of PARP (PARP): increased dose-dependently
- antitumor activity [27]: exhibit an antitumor activity
- antitumor activity [28]: exhibit an antitumor activity
